Common to all, as to type: physicochemical
Data set [1] is described as follows: Solubility studies: 0.1 g marker candidate in 0.9 g solvent, solution stability at 60 C, room temperature and -10 C. The procedure:
Solutions were made from 0.1 grams of marker candidate and 0.9 grams of solvent. The mixtures were warmed briefly to 60° C. to completely dissolve the marker candidate, then the solutions were cooled to room temperature. The solutions were then placed into a −10° C. freezer, and the stability of the solutions was monitored for at least 7 days.
DPGME is dipropylene glycol mono-methyl ether and NMP is N-methylpyrrolidone; AROMATIC 200 and AROMATIC 150 are mixed aromatic solvents available from Exxon Mobil Corp.

Data set [2] in a line: Stability and extractability of marker in xylenes solution against laundering agents, analysed by GC. As to conditions: 2000 mg/kg in xylenes, room temperature, 8 hours.
Data set [3] is described as follows: Sunlight stability of marker solution, checked by GC.
Where [4] appears, read: 75:25 Aromatic 200H: cyclohexanone.
The mark [5] stands for this setting: 75:25 Aromatic 200H: o-sec-butylphenol.

The source of these data is patent publication US9422493B2, “Tritylated alkyl aryl ethers” (Rohm and Haas Company, priority 2012, dated 2016).

SMILES strings stand for the structures.

For `CCCCCCCCCCCCOc1c(C(C)CC)cc(C(c2ccccc2)(c2ccccc2)c2ccccc2)cc1C(C)CC` (centres unmarked), the “SOLUBILITY BEHAVIOR −10 C.” value in data set [1] (setting [4]) and in data set [1] (setting [5]) was “sol 7D sol 7D” throughout.
For `CCCCCCCCCCCCOc1ccc(C(c2ccccc2)(c2ccccc2)c2ccccc2)cc1C(C)(C)C`, the “SOLUBILITY BEHAVIOR −10 C.” value in data set [1] (setting [4]) and in data set [1] (setting [5]) was “sol 7D sol 7D” in each case.
`CCCCCCCCCCCCOc1c(C(C)(C)C)cc(C(c2ccccc2)(c2ccccc2)c2ccccc2)cc1C(C)(C)C`: the “SOLUBILITY BEHAVIOR −10 C.” value in data set [1] (setting [4]) and in data set [1] (setting [5]) was “sol 7D sol 7D” in each case.
`CCCCCCCCCCCCOc1c(C(C)(C)C)cc(C(C)(C)C)cc1C(c1ccccc1)(c1ccccc1)c1ccccc1`: the “SOLUBILITY BEHAVIOR −10 C.” value in data set [1] (setting [4]) and in data set [1] (setting [5]) was “xtls 6D xtls 6D” in each case.
For `CCCCCCCCCCCCOc1ccc(C(c2ccccc2)(c2ccccc2)c2ccccc2)cc1C(C)C`, the “SOLUBILITY BEHAVIOR −10 C.” value in data set [1] (setting [4]) is “sol 7D”; in data set [1] (setting [5]), “xtls 3D”.
`CCCCCCCCCCCCOc1c(C(C)C)cc(C(c2ccccc2)(c2ccccc2)c2ccccc2)cc1C(C)C`: the “SOLUBILITY BEHAVIOR −10 C.” value in data set [1] (setting [4]) is “xtls 4D”.
In the case of `CCCCCCCCCCOc1ccc(C(c2ccccc2)(c2ccccc2)c2ccccc2)cc1C(C)CC` (centres unmarked) [DecTsBuPh], the “% Change” value in data set [2] (2% Charcoal) is −0.76%; in data set [2] (5% Bleach), 1.08%; in data set [2] (5% H2SO4, 5% by weight), −0.04%; in data set [2] (5% NaOH, 5% by weight, GC vs stock solution) it was 0.10%; in data set [2] (50% NaOH, 5% by weight) it was 0.60%; in data set [2] (98% H2SO4, 5% by weight), −1.84%. Further, the “% Change” value in data set [2] (Fuller's Earth) is 0.79%; in data set [2] (Iron Specks (2% metal specs wt/wt)), 1.76%; in data set [3] (Apr. 5, 2012) it was −1.90%; in data set [3] (Apr. 13, 2012), 2.40%; in data set [3] (Apr. 23, 2012), 0.90%; in data set [3] (May 8, 2012), −1.40%. Besides, the “% Change” value in data set [3] (May 15, 2012) is listed as 1.80%. Moreover, the “[…] −10 C.” value in data set [1] (Aromatic 200) and in data set [1] (DPGDME) was “sol 33D” throughout.
